Broadly, the viscosity is the resistance of a fluid to flow. Low readings indicate easy flow, high ones sluggish flow. The speed of sound is the propagation velocity of pressure waves in the medium.

This data set is described as follows: xn = mol fraction of the nth substance listed. The following applies: for speed of sound: x2 = 0.38.

Where the note is “298.15 K, 100 kPa, x2 = 0.9487”, `CCCCCC[n+]1ccn(C)c1.[Br-]` + O gave a viscosity of 2.88 mPa·s.
Where the note is “298.15 K, 101 kPa, x2 = 0”, `CCCC[n+]1ccn(C)c1.O=S(=O)([O-])C(F)(F)F` + OCCOCCOCCOCCO registered a viscosity of 59.8 mPa·s.
Regarding `O=C(O)CC(O)(CC(=O)O)C(=O)O` + C[N+](C)(C)Cc1ccccc1.[Cl-], the electrical conductivity (303.11 K, 101 kPa, x2 = 0.5) amounted to 0.0002 S/m; the electrical conductivity (308.2 K, 101 kPa, x2 = 0.5) is 0.0005 S/m; the electrical conductivity (313.21 K, 101 kPa, x2 = 0.5) came out at 0.0011 S/m; the electrical conductivity (318.06 K, 101 kPa, x2 = 0.5) is 0.0019 S/m; the electrical conductivity (323.14 K, 101 kPa, x2 = 0.5) was determined as 0.0032 S/m; the electrical conductivity (333.12 K, 101 kPa, x2 = 0.5) stood at 0.0095 S/m. Also, the viscosity by setting is: (317.97 K, 101 kPa, x2 = 0.5) 152000 mPa·s; (323.1 K, 101 kPa, x2 = 0.5) 89000 mPa·s; (332.88 K, 101 kPa, x2 = 0.5) 28100 mPa·s.
On to `[Cl][Al]([Cl])[Cl]` + CC[n+]1ccn(C)c1.[Cl-], for which the speed of sound is 1411 m/s (298.15 K, 100 kPa); 1404.5 m/s (303.15 K, 100 kPa); 1391.8 m/s (313.15 K, 100 kPa); 1385.6 m/s (318.15 K, 100 kPa). Further, the electrical conductivity was determined as 2.49 S/m (303.15 K, 101 kPa, x1 = 0.5); 2.12 S/m (303.15 K, 101 kPa, x1 = 0.57); 1.91 S/m (303.15 K, 101 kPa, x1 = 0.6); 1.63 S/m (303.15 K, 101 kPa, x1 = 0.67); 2.66 S/m (306.15 K, 101 kPa, x2 = 0.5); 0.982 S/m (306.15 K, 101 kPa, x2 = 0.588). For the setting “306.15 K, 101 kPa, x2 = 0.625”, this molecule came in with an electrical conductivity of 0.663 S/m.
`C[N+](C)(C)CCCl.[Cl-]` + OCC(O)CO: the viscosity (318.15 K, 100 kPa, x1 = 0.333) worked out at 161 mPa·s.
As to `CCn1cc[n+](C)c1.O=S(=O)([O-])C(F)(F)C(F)(F)C(F)(F)C(F)(F)F` + O, the viscosity turned out to be 1.038 mPa·s (298.15 K, 101.3 kPa, x1 = 0.0001); 1.111 mPa·s (298.15 K, 101.3 kPa, x1 = 0.0005); 1.091 mPa·s (298.15 K, 101.3 kPa, x1 = 0.0011); 1.164 mPa·s (298.15 K, 101.3 kPa, x1 = 0.0018); 1.367 mPa·s (298.15 K, 101.3 kPa, x1 = 0.0049); 1.96 mPa·s (298.15 K, 101.3 kPa, x1 = 0.0109). This molecule also came in with a viscosity (298.15 K, 101.3 kPa, x2 = 0.9783) of 3.03 mPa·s.
`CCCC[P+](CC)(CCCC)CCCC.[Br-]` + OCCOCCO: the viscosity (303.15 K, 101 kPa, x1 = 0.333) was 77 mPa·s; the viscosity (313.15 K, 101 kPa, x1 = 0.333) is 48.93 mPa·s; the viscosity (323.15 K, 101 kPa, x1 = 0.333) came to 32.91 mPa·s; the viscosity (343.15 K, 101 kPa, x1 = 0.333) came out at 16.88 mPa·s.
In turn, `O=C[C@H](O)[C@@H](O)[C@H](O)[C@H](O)CO` + CC[n+]1ccn(C)c1.[Cl-] came in with a viscosity (373 K, 100 kPa, x1 = 0.0082) of 47 mPa·s; a viscosity (373 K, 100 kPa, x1 = 0.0829) of 82 mPa·s; a viscosity (373 K, 100 kPa, x1 = 0.1256) of 96 mPa·s.
Take `CCCCCCCCCCCCOS(=O)(=O)[O-].CCCC[n+]1ccn(C)c1` + O: the viscosity (303 K, 101 kPa, x1 = 0.011) is 300 mPa·s; the viscosity (303 K, 101 kPa, x1 = 0.0288) was 113000 mPa·s; the viscosity (303 K, 101 kPa, x1 = 0.0626) amounted to 1070000 mPa·s; the viscosity (303 K, 101 kPa, x1 = 0.1512) worked out at 4200000 mPa·s; the viscosity (303 K, 101 kPa, x1 = 1) came out at 1.32e+07 mPa·s; the viscosity (333 K, 101 kPa, x1 = 0.011) stood at 25000 mPa·s. For the same molecule, the viscosity came to 335000 mPa·s (333 K, 101 kPa, x1 = 0.0288) and 1780000 mPa·s (333 K, 101 kPa, x1 = 0.1512).
On to `CCCCCCCC[N+](C)(CCCCCCCC)CCCCCCCC.[Cl-]` + CCC(=O)O, for which, where the note is “298 K, 100 kPa, x1 = 0.5”, the viscosity is 650 mPa·s.
Regarding `CCCCCCCCn1cc[n+](C)c1C.F[P-](F)(F)(F)(F)F` + CCCCCCCC[n+]1ccn(C)c1.F[P-](F)(F)(F)(F)F, the viscosity turned out to be 440 mPa·s (303.15 K, 100 kPa, x2 = 0.5); 241 mPa·s (313.15 K, 100 kPa, x2 = 0.5); 144 mPa·s (323.15 K, 100 kPa, x2 = 0.5).
For the molecule `[Cl][Al]([Cl])[Cl]` + CCCC[n+]1ccn(C)c1.[Cl-], the electrical conductivity by setting is: (306.15 K, 101 kPa, x2 = 0.5) 1.29 S/m; (306.15 K, 101 kPa, x2 = 0.556) 0.603 S/m; (306.15 K, 101 kPa, x2 = 0.588) 0.373 S/m.
In the case of `CCCC[N+]1(C)CCCCC1.O=S(=O)([N-]S(=O)(=O)C(F)(F)F)C(F)(F)F` + OCCOCCOCCOCCO, the viscosity is 178.5 mPa·s (298.15 K, 101 kPa, x2 = 0) and 79.5 mPa·s (298.15 K, 101 kPa, x2 = 0.5).
Regarding `O` + CCCC[n+]1ccn(C)c1.F[B-](F)(F)F, the electrical conductivity was 0.0217 S/m (288.15 K, 100 kPa, x1 = 1) and 0.0402 S/m (318.15 K, 100 kPa, x1 = 1).
On to `CC[N+](CC)(CC)CC.[Cl-]` + Oc1ccccc1, for which the viscosity runs as follows: (303.15 K, 101 kPa, x1 = 0.333) 72.1 mPa·s; (313.15 K, 101 kPa, x1 = 0.2) 21.28 mPa·s; (313.15 K, 101 kPa, x1 = 0.25) 24.68 mPa·s; (313.15 K, 101 kPa, x1 = 0.333) 43 mPa·s; (323.15 K, 101 kPa, x1 = 0.25) 16.86 mPa·s; (323.15 K, 101 kPa, x1 = 0.333) 27.8 mPa·s.
For the molecule `O=S(=O)([N-]S(=O)(=O)C(F)(F)F)C(F)(F)F.[Li+]` + COCCOCCOCCOCCOC, the electrical conductivity came to 0.255 S/m (298 K, 100 kPa, x1 = 0.143); 0.29 S/m (303 K, 100 kPa, x1 = 0.143); 0.325 S/m (308 K, 100 kPa, x1 = 0.143); 0.362 S/m (313 K, 100 kPa, x1 = 0.143); 0.465 S/m (323 K, 100 kPa, x1 = 0.143).
In the case of `CCCC[n+]1ccn(C)c1.O=S(=O)([N-]S(=O)(=O)C(F)(F)F)C(F)(F)F` + CO, the viscosity reads like this: (298 K, 100 kPa, x1 = 0.1) 1.693 mPa·s; (298 K, 100 kPa, x1 = 0.3834) 8.225 mPa·s; (298 K, 100 kPa, x1 = 0.4974) 12.54 mPa·s; (298 K, 100 kPa, x1 = 0.5875) 16.78 mPa·s; (298 K, 100 kPa, x1 = 0.7988) 30.69 mPa·s; (298 K, 100 kPa, x1 = 0.8995) 38.93 mPa·s.
Where the note is “313.15 K, 101 kPa, x1 = 0.0438”, `CCCC[P+](CCCC)(CCCC)CCCC.[Cl-]` + O returned a viscosity of 2.533 mPa·s.
Consider `CC(CC(C)(C)C)CP(=O)([O-])CC(C)CC(C)(C)C.CCCCCCCCCCCCCC[P+](CCCCCC)(CCCCCC)CCCCCC` + O, for which the viscosity (298.15 K, 100 kPa, x1 = 0.0942) came out at 133 mPa·s; the viscosity (298.15 K, 100 kPa, x1 = 0.1083) is 128 mPa·s; the viscosity (303.15 K, 100 kPa, x2 = 0.8862) came to 119.5 mPa·s.
`O=C(O)CC(=O)O` + CC[n+]1ccn(C)c1.[Cl-] came in with a viscosity (313.15 K, 101.3 kPa, x2 = 0.667) of 80.8 mPa·s; a viscosity (323.15 K, 101.3 kPa, x2 = 0.667) of 49.2 mPa·s; a viscosity (333.15 K, 101.3 kPa, x2 = 0.667) of 33.5 mPa·s; a viscosity (343.15 K, 101.3 kPa, x2 = 0.667) of 23.06 mPa·s; a viscosity (353.15 K, 101.3 kPa, x2 = 0.667) of 17.84 mPa·s.
With `O=C([O-])C(F)(F)F.[Na+]` + CCCCNC(N)=O, the viscosity by setting is: (302.2 K, 101.3 kPa, x2 = 0.6576) 324 mPa·s; (305.5 K, 101.3 kPa, x2 = 0.6576) 196 mPa·s; (310.4 K, 101.3 kPa, x2 = 0.6576) 96 mPa·s; (311.4 K, 101.3 kPa, x2 = 0.6576) 85 mPa·s; (314.3 K, 101.3 kPa, x2 = 0.6576) 54 mPa·s; (317.5 K, 101.3 kPa, x2 = 0.6576) 37 mPa·s. For the setting “322.4 K, 101.3 kPa, x2 = 0.6576”, this molecule returned a viscosity of 21 mPa·s.
Turning to `CC[n+]1ccn(C)c1.[Cl-]` + OCC(O)CO, the viscosity by setting is: (298.15 K, 101 kPa, x1 = 0.667) 345 mPa·s; (303.15 K, 101 kPa, x1 = 0.667) 243 mPa·s; (323.15 K, 101 kPa, x1 = 0.667) 75.6 mPa·s; (333.15 K, 101 kPa, x1 = 0.667) 47.2 mPa·s.
As to `CC(C)C[P+](C)(CC(C)C)CC(C)C.Cc1ccc(S(=O)(=O)[O-])cc1` + O, the viscosity (293.15 K, 101 kPa, x1 = 0.0066) is given as 1.65 mPa·s; the viscosity (293.15 K, 101 kPa, x1 = 0.0152) turned out to be 2.6 mPa·s; the viscosity (293.15 K, 101 kPa, x2 = 0) was determined as 1320 mPa·s; the viscosity (293.15 K, 101 kPa, x2 = 0.9557) was 6.9 mPa·s.

For the origin of these results see a compilation of properties of binary mixtures.
